Consider six molecules from patent US12157745B2, “Heterocyclic systems and pharmaceutical compositions thereof” (University of Sharjah, priority 2018, dated 2024).

Structures are written as SMILES.

What all share (assay): Full dose-response, survival of cancer cell line (SRB assay)
What all share (format): cell-based
Background: In SRB staining, fixed cells bind dye roughly in proportion to their protein.

The subject of one assay is HCT116. The conditions noted are these: Homo sapiens, HCT-116; colon cancer; 48 hours of drug treatment; average of three individual experiments. From the text:
(§1) Dulbecco's Modified Eagles Medium (DMEM), RPMI 1640 medium and propidium iodide (PI) were purchased from Sigma Aldrich (Darmstadt, Germany). For western blot, the antibodies; c-Myc, p^53, p^21, Bax, Bid, BclxL, GAPDH, caspase-3, caspase-9, p-ATM, p-ATR, p-Chk1, p-Chk2, p-P^53, and p-H2AX along with respective mouse/rabbit secondary antibodies were purchased from Cell Signaling Technology (Danvers, MA, USA). FITC Annexin V Apoptosis kit was purchased from BD Biosciences (New Jersey, USA). All other chemicals and solvents used were of standard analytical grade. The stock solutions of SIMR compounds were made in 100% DMSO and working solutions for treatments never exceeded >1% DMSO. The cell lines were gifted from Radiobiology and Experimental Radio Oncology lab, University Cancer Center, Hamburg University, Hamburg, Germany. F180 and HCT116 cells were cultured in DMEM media while MCF-7 and SKBR3 cells were cultured in RPMI along with 10% FBS and 5% CO2 in a humidified incubator at 37° C. The cells were grown on polystyrene T-75 (75 cm^2) culture flasks and all the experiments were performed at ˜70% cell confluency.
(§2) SRB assay was performed on DU-143 and MCF-7 cells in order to find out the sub-lethal dosage (IC50) of the synthesized compounds based on reported method with minor modifications. Briefly, 1×10^4 cells were seeded in a 96-well plate overnight and were treated with different concentrations of compounds and incubated further for 48 hours. The wells which were devoid of any treatment served as controls. After the treatment time, the plates were incubated with 50% trichloroacetic acid (TCA) at 4° C. for 1 hour. The cells were then washed, dried and exposed to 1% acetic acid for short period. Two hundred microliters of 10 mMtris base solution was then added with 10 min incubation after drying the plates and the OD was read at 492 nm by using a Multiskan™ GO (Thermo Scientific, USA) microplate Spectrophotometer.

The test system of another assay is SKBR3. Particulars: Homo sapiens, SK-BR-3; breast cancer; 48 hours of drug treatment; average of three individual experiments.
Text: as §1, §2

Another assay relates to MCF7. Particulars: Homo sapiens, breast cancer, 48 hours of drug treatment, average of three individual experiments.
Text: as §1, §2

For orientation: IC50 means the concentration needed to halve the response being measured. Read a high IC50 as weaker potency. In the case of `CC(=O)Nc1ccc(C2=CSC3=N[C@@H]4c5c(ccc6ccccc56)OC[C@@H]4C(C)(C)N23)cc1` [Compound 1m], the IC50 in the assay on HCT116 was determined as 3.7 µM; in the assay on SKBR3 it was 6.4 µM; in the assay on MCF7, 4.5 µM.
For `COc1ccc(OC)c(C2=CSC3=N[C@@H]4c5c(ccc6ccccc56)OC[C@@H]4C(C)(C)N23)c1` [Compound 1n] the same measures were 6.2 µM, 10.1 µM and 6.76 µM.
On to `CC1=C(c2ccccc2)N2C(=N[C@@H]3c4c(ccc5ccccc45)OC[C@@H]3C2(C)C)S1` [Compound 1q], for which the IC50 in the assay on HCT116 is 4.7 µM; with SKBR3 it was 9.4 µM; in the assay with MCF7, 11.8 µM.
For `CC1=C(c2ccc(Br)cc2)N2C(=N[C@@H]3c4c(ccc5ccccc45)OC[C@@H]3C2(C)C)S1` [Compound 1r] the same measures were 7.2 µM, 7.6 µM and 8.14 µM.
For `CC1=C(c2ccc(Cl)c(Cl)c2)N2C(=N[C@H]3c4cc5c6c(c4OC[C@@H]3C2(C)C)CCCN6CCC5)S1` [Compound 1x] the same measures were 2.3 µM, 1.4 µM and 0.38 µM.
For `COc1cccc2c1C(=O)c1c(O)c3c(c(O)c1C2=O)C[C@@](O)(C(=O)CO)C[C@@H]3O[C@H]1C[C@H](N)[C@H](O)[C@H](C)O1` [Doxorubicin, reference compound], the IC50 was 0.096 µM in the assay with HCT116, 0.25 µM in the assay with SKBR3 and 0.058 µM in the assay with MCF7.
